For one series, the target named is human serum albumin (Homo sapiens, UniProt P02768). In words: binding constant to human serum albumin (TRANSIL technology). From the text:
The effective molecular weight (MW) is obtained simply from the respective empirical formula of the substance. The waters solubilities and the typical administered dosages of these commercially available products are furthermore known from the literature.
The ADME maps in FIGS. 5 to 10 show by way of example a selection of commercially available pharmaceutical substances. The substance names and the associated experimental measurement values for their physicochemical properties are summarised in Table 1.

For series [1] the following is noted: water solubility, from the literature; cited from earlier work.
Series [2] in a line: membrane affinity as a measure of the lipophilicity (TRANSIL technology). Format: physicochemical.
[3] abbreviates: log binding constant to human serum albumin, TRANSIL.

Drawing on patent US20050137807A1, “Method of visualization of the ADME properties of chemical substances” (priority 2003, published 2005), this text covers LogHSA, Solubility and LogMA for 40 compounds.

≈ marks a conversion by molar mass, not a printed value. A value given as a limit tells only on which side of the number the result lay.

Sequence of human serum albumin (P02768 25-609): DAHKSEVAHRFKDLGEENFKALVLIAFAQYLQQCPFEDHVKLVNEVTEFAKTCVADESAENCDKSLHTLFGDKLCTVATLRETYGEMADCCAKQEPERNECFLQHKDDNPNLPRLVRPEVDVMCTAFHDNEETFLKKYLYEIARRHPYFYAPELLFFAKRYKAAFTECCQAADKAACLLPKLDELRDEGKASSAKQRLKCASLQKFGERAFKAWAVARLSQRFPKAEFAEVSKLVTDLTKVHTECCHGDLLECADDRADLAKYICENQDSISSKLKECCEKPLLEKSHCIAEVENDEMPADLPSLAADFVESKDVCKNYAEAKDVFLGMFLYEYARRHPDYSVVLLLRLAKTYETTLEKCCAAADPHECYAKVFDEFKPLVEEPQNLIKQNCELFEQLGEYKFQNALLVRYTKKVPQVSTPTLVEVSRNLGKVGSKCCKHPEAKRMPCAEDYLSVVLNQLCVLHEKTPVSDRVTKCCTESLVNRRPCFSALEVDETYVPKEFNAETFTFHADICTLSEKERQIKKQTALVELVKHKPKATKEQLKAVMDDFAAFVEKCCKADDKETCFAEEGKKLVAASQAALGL

Compound `CC1(C)S[C@@H]2[C@H](NC(=O)Cc3ccccc3)C(=O)N2[C@H]1C(=O)O` [Penicilin G] had a LogHSA at human serum albumin (setting [3]) of −4.301. Further, in series [1], the Solubility is 50 µg/mL (≈ 150 µM). In addition, the LogMA in series [2] was found to be 1.041.

As for `C[C@]12C[C@H](O)[C@H]3[C@@H](CCC4=CC(=O)CC[C@@]43C)[C@@H]1CC[C@@H]2C(=O)CO` [Corticosterone], in series [1], the Solubility is 143 µg/mL (≈ 413 µM). The compound also had a LogMA in series [2] of 2.531.

Compound `CCn1cc(C(=O)O)c(=O)c2cc(F)c(N3CCNCC3)nc21` [Enoxacin] had a LogHSA on human serum albumin (human) of −2.278. The Solubility in series [1] is 34300 µg/mL (≈ 107000 µM). The same compound had a LogMA in series [2] of 0.954.

In turn, Oxacepam yielded a LogHSA at human serum albumin (setting [3]) of −4.000. For the same compound, in series [1], the Solubility is 179 µg/mL. The LogMA in series [2] is listed as 2.342.

Consider `CN(Cc1cnc2nc(N)nc(N)c2n1)c1ccc(C(=O)N[C@@H](CCC(=O)O)C(=O)O)cc1` [Metotrexate], for which the LogHSA on human serum albumin (setting [3]) is given as −3.796. In addition, the Solubility in series [1] is 26000 µg/mL (≈ 57200 µM). Further, the LogMA in series [2] came to 1.176.

The compound `CCCN(CCC)S(=O)(=O)c1ccc(C(=O)O)cc1` [Probenecid] registered a LogHSA on human serum albumin (human) of −4.004. Also, the Solubility in series [1] was 27.1 µg/mL (≈ 95 µM). The LogMA in series [2] was determined as 1.322.

As to `CCCCNC(=O)NS(=O)(=O)c1ccc(C)cc1` [Tolbutamid], the Solubility in series [1] was 109 µg/mL (≈ 403 µM).

In turn, `N=C(N)N/N=C/c1c(Cl)cccc1Cl` [Guanabenz] gave a LogHSA on human serum albumin (human) of −3.745. Besides, the Solubility in series [1] is 1055 µg/mL (≈ 4570 µM). The LogMA in series [2] is 0.602.

For the compound `COc1cc2nc(N3CCN(C(=O)C4CCCO4)CC3)nc(N)c2cc1OC` (centres unmarked) [Terazosin], the Solubility in series [1] was 205 µg/mL (≈ 529 µM). For the same compound, the LogMA in series [2] was found to be 1.785.

On human serum albumin (human), `CO/N=C(\C(=O)N[C@@H]1C(=O)N2C(C(=O)O)=C(COC(N)=O)CS[C@H]12)c1ccco1` [Cefuroxime] registered a LogHSA of −2.553. The Solubility in series [1] is 145 µg/mL (≈ 342 µM). In addition, in series [2], the LogMA came out at 0.477.

Take `CC(C)(C)NCC(O)c1cc(O)cc(O)c1` (centres unmarked) [Terbutaline]: at human serum albumin (human), the LogHSA is recorded as −2.398. For the same compound, in series [1], the Solubility is 212800 µg/mL (≈ 945000 µM). In addition, in series [2], the LogMA is 0.845.

With `CCOC(=O)C1=C(C)NC(C)=C(C(=O)OC)C1c1cccc([N+](=O)[O-])c1` (centres unmarked) [Nitrendipine], the LogHSA on human serum albumin (human) is −4.824. Moreover, the Solubility in series [1] is 77 µg/mL (≈ 214 µM).

At human serum albumin (human), `COC(=O)C1=C(C)NC(C)=C(C(=O)OCC(C)C)C1c1ccccc1[N+](=O)[O-]` (centres unmarked) [Nisoldipine] gave a LogHSA of −5.319. Moreover, in series [1], the Solubility was 25 µg/mL (≈ 64.4 µM).

As for `NC(=O)N1C(=O)/C(=C(\O)c2cccs2)c2cc(Cl)ccc21` [Tenidap], the Solubility in series [1] is 2676 µg/mL (≈ 8340 µM).

Turning to `CCCC(CCC)C(=O)O` [Valproic acid], the LogHSA at human serum albumin (human) was −3.921. For the same compound, in series [1], the Solubility was 895 µg/mL (≈ 6210 µM). This compound returned a LogMA in series [2] of 1.041.

Take `CC(C)(O/N=C(\C(=O)N[C@@H]1C(=O)N2C(C(=O)[O-])=C(C[n+]3ccccc3)CS[C@H]12)c1csc(N)n1)C(=O)O` [Ceftazidime]: on human serum albumin (human), the LogHSA is reported as −2.495. Further, the Solubility in series [1] was over 500 µg/mL. The same compound yielded a LogMA in series [2] of 1.000.

With `C[C@]12CC[C@H]3[C@@H](CCC4=CC(=O)CC[C@@]43C)[C@@H]1CC[C@@H]2O` [Testosteron], the LogHSA at human serum albumin (setting [3]) is listed as −4.912. Further, the Solubility in series [1] was 68 µg/mL (≈ 236 µM). Moreover, in series [2], the LogMA came out at 2.826.

`CC(C)(C)NC[C@H](O)COc1nsnc1N1CCOCC1` [Timolol] displayed a LogHSA at human serum albumin (human) of −2.000. In addition, the Solubility in series [1] is 2741 µg/mL (≈ 8660 µM). This compound also came in with a LogMA in series [2] of 1.477.

Regarding `Cn1c(=O)c2[nH]cnc2n(C)c1=O` [Theophiline], the Solubility in series [1] is 2800 µg/mL (≈ 15500 µM). Moreover, in series [2], the LogMA worked out at 0.886.

On human serum albumin (setting [3]), `COC(=O)C1=C(C)NC(C)=C(C(=O)OC(C)C)C1c1cccc2nonc12` (centres unmarked) [Isradipin] yielded a LogHSA of −4.301. The Solubility in series [1] was 49 µg/mL (≈ 132 µM). Also, the LogMA in series [2] turned out to be 3.699.

Take `OC(Cn1cncn1)(Cn1cncn1)c1ccc(F)cc1F` [Fluconazole]: in series [1], the Solubility was 1086 µg/mL (≈ 3550 µM).

Compound `O=C1NC(=O)C(c2ccccc2)(c2ccccc2)N1` [Phenytoin] registered a LogHSA on human serum albumin (human) of −3.639. In addition, in series [1], the Solubility is 1267 µg/mL (≈ 5020 µM). The compound also returned a LogMA in series [2] of 2.778.

Consider `CC(C)NCC(O)COc1cccc2ccccc12` (centres unmarked) [Propranolol], for which the LogHSA on human serum albumin (human) was −4.028. For the same compound, the Solubility in series [1] was 609 µg/mL (≈ 2350 µM). For the same compound, the LogMA in series [2] was 3.146.

On human serum albumin (setting [3]), `CNCCCN1c2ccccc2CCc2ccccc21` [Despiramine] gave a LogHSA of −3.398. Also, the Solubility in series [1] is 0.99 µg/mL (≈ 3.72 µM).

`CN1C(=O)CN=C(c2ccccc2F)c2cc([N+](=O)[O-])ccc21` [Flunitrazepam]: the Solubility in series [1] was 72.8 µg/mL (≈ 232 µM). In series [2], the LogMA was 2.477.

In the case of `CN(C)CCCN1c2ccccc2CCc2ccccc21` [Imipramine], the LogHSA at human serum albumin (human) is −3.301. The Solubility in series [1] was 1 µg/mL (≈ 3.57 µM). In series [2], the LogMA is recorded as 3.190.

`Cc1nnc(SCC2=C(C(=O)O)N3C(=O)[C@@H](NC(=O)Cn4cnnn4)[C@H]3SC2)s1` [Cefazolin] gave a LogHSA on human serum albumin (setting [3]) of −3.456. Also, the LogMA in series [2] was found to be 0.903.

Take `C[C@H](CS)C(=O)N1CCC[C@H]1C(=O)O` [Captopril]: the LogHSA on human serum albumin (human) is on record as −3.222. The compound further displayed a LogMA in series [2] of 0.477.

`CN/C(=N/CCSCc1nc[nH]c1C)NC#N` [Cimetidine] had a LogHSA at human serum albumin (human) of −1.876. In series [2], this compound gave a LogMA of 1.176.

`CN1CCN(c2c(F)cc3c(=O)c(C(=O)O)cn(CCF)c3c2F)CC1` [Fleroxacin] yielded a LogHSA on human serum albumin (human) of −2.523. The compound also gave a LogMA in series [2] of 1.301.

`CC(C)(C)NCC(O)COc1cccc2c1CC(O)C(O)C2` (centres unmarked) [Nadolol]: the Solubility in series [1] is 22400 µg/mL (≈ 72400 µM). The LogMA in series [2] is on record as 0.602.

As to `C[C@@H]1C[C@H]2[C@@H]3CCC4=CC(=O)C=C[C@]4(C)[C@@]3(F)[C@@H](O)C[C@]2(C)[C@@]1(O)C(=O)CO` [Dexamethasone], the Solubility in series [1] was 93 µg/mL (≈ 237 µM).

At human serum albumin (human), `Cc1ccccc1N1C(=O)c2cc(S(N)(=O)=O)c(Cl)cc2NC1C` (centres unmarked) [Metolazone] yielded a LogHSA of −4.201. In addition, the LogMA in series [2] is given as 1.531.

With `CC(=O)Oc1ccccc1C(=O)O` [Acetylsalicylic acid], the LogHSA at human serum albumin (human) was −3.097. The same compound had a LogMA in series [2] of 0.301.

Take `C=CCc1ccccc1OCC(O)CNC(C)C` (centres unmarked) [Alprenolol]: the Solubility in series [1] is 547 µg/mL (≈ 2190 µM). In series [2], this compound gave a LogMA of 2.699.

In turn, `CC(C)NCC(O)COc1cccc2[nH]ccc12` (centres unmarked) [Pindolol] had a LogHSA at human serum albumin (human) of −2.699. The compound also came in with a LogMA in series [2] of 2.398.

The compound `CC(C)=CCN1CCC2(C)c3cc(O)ccc3CC1C2C` (centres unmarked) [Pentazocin] displayed a LogHSA at human serum albumin (setting [3]) of −2.510. The compound further showed a LogMA in series [2] of 2.633.

Turning to `CC(=O)[C@H]1CC[C@H]2[C@@H]3CCC4=CC(=O)CC[C@]4(C)[C@H]3CC[C@]12C` [Progesteron], at human serum albumin (setting [3]), the LogHSA is on record as −6.189. The compound further yielded a LogMA in series [2] of 3.843.

Regarding `NC[C@H]1CC[C@H](C(=O)O)CC1` [Tranexamic acid], on human serum albumin (human), the LogHSA is recorded as −4.000. The LogMA in series [2] is on record as −0.301.

For the compound `CC(CCc1ccccc1)NCC(O)c1ccc(O)c(C(N)=O)c1` (centres unmarked) [Labetalol], in series [1], the Solubility is 73 µg/mL (≈ 222 µM). In series [2], this compound came in with a LogMA of 3.620.
